Data reported in ChEMBL document CHEMBL1158863, “Oxidations of vincristine catalyzed by peroxidase and ceruloplasmin” (J Nat Prod, 1997).
≈ marks a conversion by molar mass, not a printed value.

Tested on: CCRF-CEM
Assay: Cytotoxicity against human CCRF-CEM cells
Format: functional, cell-based

SMILES	IC50
CC[C@H](O)C[C@@H]1CN(C=O)CCc2c([nH]c3ccccc23)[C@@](C(=O)OC)(c2cc3c(cc2OC)N(C=O)[C@H]2[C@@](O)(C(=O)OC)[C@H](OC(C)=O)[C@]4(CC)C=CCN5CC[C@]32[C@@H]54)C1	7.1 µg/mL (≈ 8.44 µM)
CCC(=O)C[C@@H]1CN(C=O)CCc2c([nH]c3ccccc23)[C@@](C(=O)OC)(c2cc3c(cc2OC)N(C)[C@H]2[C@](O)(C(=O)OC)[C@H](OC(C)=O)[C@]4(CC)C=CCN5CC[C@]32[C@@H]54)C1 [CATHARININE]	7.7 µg/mL (≈ 9.33 µM)
CC[C@]1(O)C[C@H]2CN(CCc3c([nH]c4ccccc34)[C@@](C(=O)OC)(c3cc4c(cc3OC)N(C=O)[C@H]3[C@@](O)(C(=O)OC)[C@H](OC(C)=O)[C@]5(CC)C=CCN6CC[C@]43[C@@H]65)C2)C1 [VINCRISTINE]	0.06 µg/mL (≈ 0.0727 µM)
CC[C@]1(O)C[C@@H]2CN(CCc3c([nH]c4ccccc34)[C@@](C(=O)OC)(c3cc4c(cc3OC)N(C)[C@H]3[C@@](O)(C(=O)OC)[C@H](OC(C)=O)[C@]5(CC)C=CCN6CC[C@]43[C@@H]65)C2)C1 [VINBLASTINE]	0.03 µg/mL (≈ 0.037 µM)
